The values that follow come from patent US5514668A (priority 1989, dated 1996).

The test system of one data set is mice. The experiment in a line: Toxicity on intravenous injection in mice.
The subject of data set [1] is Coccidia. The following applies: poultry, admixed in the fodder; cited from earlier work.
Data set [2] has as its system Coccidia. The note with it: tissue culture; J. Med. Chem. 1983, 26, 590-592; cited from earlier work.
The nature of data set [3]: Elimination in urine of mice (UV analysis). The note with it: i.v., 1% solution, 0.4 ml. Format: in vivo.
Protocol: The product A was at a concentration of 1% injected intraveneously in mice which each received a dose of 0.4 ml corresponding to 32×10^-4 g crown ether.
The test system of data set [4] is foot- and -mouth disease virus, type A. The following applies: mouse, in vivo.
A short description of data set [5]: Elimination of Cs^137 from blood of mice into urine. Format: in vivo. The method, then:
Tests were performed at Fors.o slashed.gsstation Ris.o slashed., Department of Health, Roskilde, Denmark, to investigate the ability of the dextran-crown ether compounds to remove radioactive cesium, Cs^137, from the blood of mice.
Three tests were run, each using five mice.
As basis solution for use as injection liquid or for use as basis for the preparation of such, an aqueous 0,9% sodium chloride solution was used containing Cs^137 in an amount corresponding to 3000 Bq/ml.
In each test the mice were kept in a cage, the bottom of which was a net below which a funnel was arranged for collecting the urine of the mice. After each collection of urine the bottom was flushed with water, and urine plus flushing water were collected and diluted with water to 20 ml before the radioactivity were determined by means of a Geiger counting apparatus.
By this test each mouse was injected with 0,1 ml af the basis solution and thus received 300 Bq Cs^137. The time for this injection, below designated to, was 11:30 .
After one hour each mouse was injected with 0,4 ml of a 6 w/v-% aqueous solution of the dextran-O-carbonylbenzo-18-crown-6-product produced according to Example 1, corresponding to 24 mg of this product per mouse.
Collection of urine with subsequent determination of radioactivity was initiated one hour and […], corresponding to 1.35 hours after to and was continued as it appears from Table I below.
47.81 hours after to a further injection of 0.5 ml of the 6%'s dextran-crown ether-solution was made on each mouse and the collection of urine and determination of radioactivity therein were continued.
At this test the injection solution was a mixture of 2 ml of the above mentioned Cs^137 -containing solution and 8 ml of the dextran-crown ether solution used in Test I.
Each mouse was injected with 0,5 ml of the mixture and thus received 300 Bq Cs^137 and 24 mg dextran-crown ether. Collection of urine and further crown ether injection (0,5 ml 6% solution) was made as in Test 1 as it appears from Table II below.
By this comparison test the injection solution was a mixture of 2 ml of the above mentioned basis solution containing 3000 Bq/ml Cs^137 and 8 ml aqueous 0,9% by weight NaCl-solution. Each mouse was injected using […] of the mixture and thus received 300 Bq Cs^137.

The subject of data set [6] is foot-and-mouth desease virus, type A, Holland. The arrangement: species or system Holland; Guinea pigs. The note with it: guinea pig, in vivo, sc.
The subject of data set [7] is foot-and-mouth desease virus, type C, Turup. The arrangement: species or system Turup; Guinea pigs. The following applies: guinea pig, in vivo.
Data set [8] is described as follows: Complexing capability, diffusion test using a membrane cell. Format: binding. The note with it: aqueous, alcohol containing solution; relative to free crown ether.
Data set [9] can be described thus: Complexing capability, cesium binding in dialysis hose. The method, then: The resulting solution was transferred to a hose for dialysis having a pore radius of approximately 1.5 nm.
After 12 hours samples taken from the liquid inside the dialysis hose and from the liquid outside the hose in the graduated glass, resp., were measured by means of a gamma counter operating at 0.66 MeV, to determine the ratio of the Cs concentration inside the dialysis hose to the Cs concentration outside the hose. On the basis of these determinations the corresponding amounts of Cs in the two liquids were calculated.

Where [10] appears, read: 0.08% solution, 0.4 ml, 3.2×10^-4 g crown ether.

Entries after “also recorded” stand apart in the source; their conditions may differ.

In the case of `c1ccc2c(c1)OCCOCCOCCOCCOCCO2` [benzo-18-crown-6], in the data set with mice (setting [10]), the “duration of heavy convulsions” value was “approximately 15 minutes”; the symptoms and survival result is listed as “heavy convulsions appeared; also recorded: the animals survived”. Also, in the data set on mice (3.2×10^-4 g pure compound versus product (B) containing 1.2×10^-4 g unbound), the “reaction compared with product (B)” value is “significantly heavier reaction”. Moreover, in the data set on mice (aqueous solution 0.8%, 0.4 ml, 32×10^-4 g crown ether), the death of animals result was “The animals died immediately before the injection was completed”.

Consider `c1ccc2c(c1)OCCOCCOCCOCCOc1ccccc1OCCOCCOCCOCCO2` [dibenzo-30-crown-10], for which the “in vivo anti-coccidial effect” value with Coccidia [1] is “no in vivo effect was demonstrated”. For the same compound, the anti-coccidial activity result in the data set on Coccidia [2] is recorded as “have an anti-coccocidal activity in tissue culture tests”.

For “T40-Dextran-O-carbonylbenzo-18-crown-6 [product A]”, the signs of illness result in the data set with mice (i.v., 1% solution, 0.4 ml) is recorded as “did not show any sign of illness”. The “time after which compound was excreted substantially completely in urine” value in data set [3] was 3 to 5 h.

On to “T40-Dextran-O-carbonylbenzo-18-crown-6 [product B]”, for which the symptoms after injection entry with mice (i.v., 10% solution, 0.4 ml) is “subdued after having received this dose and had bristled furs; also recorded: thereafter they did not shown any symptoms”. The “duration of being subdued with bristled furs” value with mice (i.v., 10% solution, 0.4 ml, several animals) is “approximately 30 minutes”.

On to “dextran-O-carbonylbenzo-18-crown-6 [dextran-crown ether]”, for which the “effect on viral activity” value in data set [4] is on record as “impedes the viral activity”. Further, the “significance of titre difference versus virus control” value in data set [4] was “not significant”. For the same compound, the “radioactivity in urine + flushing water” value in [5] (Test 1, 1.35 hours after to, 24 mg per mouse given one hour after Cs^137) amounted to 6978 counts; in [5] (Test 1, 4.63 hours after new to (second injection)), 3533 counts; in data set [5] (Test 1, 4.83 hours after to) it was 3684 counts; in data set [5] (Test 1, 8.67 hours after new to (second injection)) it was 2937 counts; in data set [5] (Test 1, 8.88 hours after to), 8280 counts; in [5] (Test 1, 20.07 hours after to), 17001 counts. The “radioactivity in urine + flushing water” value was determined as 6391 counts in data set [5] (Test 1, 22.28 hours after new to (second injection)); 17368 counts in [5] (Test 1, 44.92 hours after to); 2213 counts in data set [5] (Test 1, 47.78 hours after to); 4498 counts in data set [5] (Test 2, 0.87 hours after to, 24 mg per mouse injected in mixture with Cs^137); 3659 counts in data set [5] (Test 2, 4.33 hours after new to (second injection)); 11634 counts in data set [5] (Test 2, 4.62 hours after to). In addition, the “radioactivity in urine + flushing water” value is 3222 counts in [5] (Test 2, 8.40 hours after new to (second injection)); 8566 counts in data set [5] (Test 2, 8.65 hours after to); 16805 counts in data set [5] (Test 2, 19.82 hours after to); 4966 counts in data set [5] (Test 2, 22.08 hours after new to (second injection)); 12901 counts in [5] (Test 2, 44.65 hours after to); 2728 counts in data set [5] (Test 2, 47.53 hours after to). Besides, the “Counts, total (accumulated)” value in [5] (Test 1, time 1.35) was determined as 6978 counts; in data set [5] (Test 1, time 4.83) it was 10662 counts; in data set [5] (Test 1, time 20.07), 35943 counts; in data set [5] (Test 1, time 44.92), 53311 counts; in [5] (Test 1, time 47.78) it was 55524 counts; in data set [5] (Test 1, time 52.41) it was 59057 counts. Besides, the “Counts, total (accumulated)” value in data set [5] (Test 1, time 56.45) turned out to be 61994 counts; in data set [5] (Test 1, time 67.06), 68385 counts; in data set [5] (Test 2, time 0.87), 4498 counts; in data set [5] (Test 2, time 8.65), 24698 counts; in data set [5] (Test 2, time 19.82) it was 41503 counts; in data set [5] (Test 2, time 44.65), 54411 counts. For the same compound, the “Counts, total (accumulated)” value in data set [5] (Test 2, time 47.53) came to 57139 counts; in data set [5] (Test 2, time 51.86) it was 60798 counts; in [5] (Test 2, time 55.93) it was 64020 counts; in [5] (Test 2, time 69.53), 68986 counts. Further, the “speed of excretion of Cs^137 after the second injection” value in data set [5] (approximately 8 hours after second injection) was “somewhat increased speed of excretion”. The “more radioactive Cs excreted than in comparison Test 3” value in data set [5] (approximately 70 hours, Tests 1 and 2 versus Test 3) is “approximately 17%”. Besides, the “speed of elimination of Cs^137” value in data set [5] (first 5-8 hours after the first injection) was “significantly increased”. Also, in data set [6], the “reduction of the number of blisters” value was “a reduction of the number of blisters was obtained”. Moreover, the antiviral activity entry in [7] is listed as “exhibited an antiviral activity at all three days”. Moreover, the “capability of complexing metals, such as sodium ions” value in data set [8] is listed as “has been maintained”.

In the case of dextran-hydroxyethylbenzo-18-crown-6, in data set [9], the “capability of catching and binding cesium ions” value was “substantial capability of catching and binding cesium ions”. Further, in data set [9] (after 12 h), the “Cs in liquid inside the hose” value worked out at 658 µg and the “Cs in liquid outside the hose” value was found to be 1362 µg. Besides, the “Cs conc. inside hose/Cs conc. outside hose” value in data set [9] (after 12 h, gamma counter) was 1.2. In data set [9] (initially), the “Cs conc. inside hose/Cs conc. outside hose” value is given as 1, the “Cs in liquid inside the hose” value turned out to be 520 µg and the “Cs in liquid outside the hose” value came out at 1500 µg.
